# Values quoted from earlier work in patent publication US20050089581A1, “Magnesium-containing compositions and methods for enhancing dehydroepiandrosterone levels” (priority 2003, published 2005).
# How the values were obtained:
# DHEA levels = conditions: oral administration
# [1] = administration of DHEA, its esters, or salts thereof; W. Regelson et al.
# [2] = test system: human coxsackievirus B4 strain
# platelet aggregation = conditions: second week, 300 mg DHEA per day orally
# [3] = second week, 300 mg DHEA per day orally
Compound,effect on DHEA levels (DHEA levels),side effects [1],"mortality ([2]; infection with 100,000 plaque forming units/animal, about 90% mortality in infected animals without treatment) [%]","elevation in the number of antibody forming cells ([2]; within the animal, DHEA administered) [%]",subjects with slower rate of platelet aggregation and need for higher arachidonic acid concentration to initiate aggregation (platelet aggregation),"mean serum DHEA-S level ([3]; DHEA group, baseline 316.2, placebo 260.5+/−56.7) [µg/dL]","mean serum DHEA ([3]; treated group, baseline 5.83+/−3.9, placebo 5.58+/−4.1) [ng/mL]"
magnesium taurate,does not increase DHEA levels,,,,,,
"C[C@]12CCC(O)CC1=CC[C@@H]1[C@@H]2CC[C@]2(C)C(=O)CC[C@@H]12 (stereo partly shown) [DHEA, 3-hydroxyandrost-5-en-17-one]",,mild androgenic effects and hirsutism,37,80,Four of the five test subjects,1451.9 ± 56.7,28.7 ± 13.9
